Reference: US8722343B2, “Methods and compositions for the diagnosis and treatment of diabetes” (priority 2008, dated 2014)

Columns and labels:
[1] = test system: βTC3 cells; assay: MTT cell viability assay in βTC3 cells; assay type: cell-based, mouse
Description: 1A: Glutamate induces a dose-dependent beta-cell death. 24 hrs after plating, αTC1 and βTC3 cells were incubated for five days with the indicated glutamate concentrations and viability was assessed by MTT assay. Data are presented as % Relative Growth Rate (RGR) versus controls (100%) and represent the mean±SE of at least 7 independent experiments (n=6). * p<0.01 vs ctrl; ° p<0.01 vs Glu 5 mM in αTC1.
1C: β-cell death is prevented by pharmacological inhibition of ionotropic channels. 24 hrs after plating, αTC1 and βTC3 cells were incubated for five days with 0.025 mM CNQX (left panel) or 0.1 mM APV (right panel), in the presence or the absence of 5 mM glutamate and viability was assessed by MTT assay. Data are presented as % RGR versus control samples (100%) and represent the mean±SE of three independent experiments (n=5). * p<0.05
6B. MTT assay. 24 hrs after plating, αTC1 and βTC3 cells were incubated for five days with different DHK concentrations and viability was assessed by MTT assay. Data are presented as % RGR versus control (100%) and represent the mean±SE of three independent experiments (n=8). * (DHK versus control) p<0.05
8B: MTT assay: 24 hrs after plating, βTC3 cells were incubated for five days with the indicated ceftriaxone concentrations in the presence or absence of 5 mM glutamate and viability was assayed by MTT assay. Data are presented as % RGR versus control (100%) and represent the mean±SE of three independent experiments (n=8). *(ceftriaxone versus relative control) p<0.05.
βTC3 and αTC1 cells were derived from progeny of transgenic mice expressing SV40 large T-antigen under control of the rat insulin II 5′-flanking region or rat preproglucagon 5′-flanking region, respectively (Powers et al, 1990) and were originally provided by Douglas Hanahan (Department of Biochemistry and Biophysics, University of California, San Francisco, Calif.). βTC3 were grown in RPMI 1640 11 mM glucose, supplemented with 10% heat inactivated fetal bovine serum, 2 mM L-glutamine, and 100 IU/ml streptomycin/penicillin, as previously described (Galbiati et al, 2002). Experiments were performed between the 27 and 33 passage of cell culture.
(§1) 3-(4,5-Dimethylthiazol-2-yl)-2,5-diphenyltetrazolium bromide (MTT) assay. βTC3 cells were seeded at a density of 8×10^3 cells/well onto 96-well culture plates. Cells were allowed to attach and grow for 24 h in standard medium. Then medium was replaced with fresh medium containing glutamate, DHK (Dihydrokainic Acid, Sigma Aldrich), glutamate receptor inhibitors APV and CNQX (Sigma Aldrich) or ceftriaxone (Sigma Aldrich) at the indicated concentrations. […] Coloured formazan product was determined spectrophotometrically at 540 nm. 20 islets/tube were used to assess viability in human isolated islets. Data are expressed as % Relative Growth Rate (% RGR) versus control samples.

[2] = test system: GLT1; assay: GLT1 expression in βTC3 cells by western blotting; assay type: cell-based, mouse; settings: 10 μM ceftriaxone, five days
Description: (§2) 6D ShRNA interference. βTC3 cells were transfected with two different shRNA directed against GLT1 (Sh1, Sh3) or a control shRNA (ShC), and three days after transfection, cells were assayed for 3[H]-D-aspartate uptake (b) or lysed and the presence of GLT assayed by western blotting (a) or fixed and processed for TUNEL (c).
8A: GL1 expression. 150.000 cells were plated on […] diameter Petri dishes and 24 hours after plating, they were incubated with 10 μM ceftriaxone for five days. After incubation cells were lysed and 100 μg of whole lysate extracts were separated onto a 9% SDS-PAGE and the expression of glutamate transporter was detected using specific anti-GLT1 or anti-β-catenin antibodies. The expression of GLT1 was quantified by densitometry, and normalized over β-catenin content. Shown is a representative experiment; Similar results were obtained in two other independent experiments.
βTC3 or αTC1 cells were seeded onto 6-cm tissue culture plates and allowed to attach and grow until confluence. […] After 1 h at 4 C, lysates were centrifuged at 13,000 rpm for 10 min, and 50 μg of total extracted proteins were analyzed on 9% SDS-PAGE and transferred onto nitrocellulose (Shleicher and Shull, Dassel, Germany). […] The signal intensities were densitometrically quantified using Scion Image software. […]

[3] = test system: human isolated islets; assay: MTT viability assay in isolated human islets; assay type: cell-based; settings: 5 mM glutamate, three days, 16.7 mM glucose
Description: 7A: MTT assay: 48 hrs after isolation, 20 islets/tube were incubated for three days with the indicated glutamate and DHK concentrations in the presence of 3.3 mM glucose or 16.7 mM glucose and viability was assessed by MTT assay. Data are expressed as % Relative Growth Rate (% RGR) versus control samples and are the means±SE of three different experiments performed in triplicate.
Human pancreatic islets were isolated from the pancreases of cadaveric multiorgan donors by using the procedure already described by Ricordi (Ricordi, et al, 1988). The islets used in this study were isolated from eight different organs. After the isolation, the islets were purified from the contaminant exocrine tissue by centrifugation on Ficoll gradients, obtaining a final purity that ranged from 60% to 80%, as assayed by dithizone staining (Ricordi et al, 1988). Islets were then cultured in RPMI 1640 tissue culture medium. […]
3-(4,5-Dimethylthiazol-2-yl)-2,5-diphenyltetrazolium bromide (MTT) assay. βTC3 cells were seeded at a density of 8×10^3 cells/well onto 96-well culture plates. […] After five days incubation, cell viability was assessed using the MTT method, according to the manufacturer's protocols (Sigma Aldrich). Coloured formazan product was determined spectrophotometrically at 540 nm. […] Data are expressed as % Relative Growth Rate (% RGR) versus control samples.

[4] = test system: human isolated islets; assay type: cell-based; settings: 16.7 mM glucose; DHK (0.3 mM) or L-glutamate (0.5 mM) alone
Description: FIG. 5: GLT1 CONTROLS HORMONE SECRETION IN HUMAN ISOLATED ISLETS. 48 hours after isolation, 20 human islets per tube were exposed to 3.3 or 16.7 mM glucose in the absence and the presence of either L-glutamate (0.5 mM), DHK (0.3 mM) or both L-glutamate and DHK, and insulin secretion measured. Levels of secreted insulin from islets were normalized to total insulin content. Data are expressed as % of insulin content and represent the mean±SD of two independent experiments performer in duplicate.
Insulin content and secretion were assessed on 20 islets, using a Micro-particle Enzyme Immunoassay (MEIA insulin, IMX System, Abbott Laboratories, Abbott Park, Ill., USA). Insulin secretion in response to increasing glucose concentrations, glutamate or DHK treatment was assessed by static incubation as previously described (Federici et al, 2000). Briefly, batches of 20 islets were pre-incubated in 1 ml of Krebs-Ringer buffer (KRB) supplemented with 3, 3 or 16.7 mM glucose for 30 min. Then the supernatants were replaced with Kreb's buffer containing 3, 3 or 16.7 mM glucose plus glutamate or the specific GLT1 inhibitor DHK (Sigma, St Louis, Mo., USA), as indicated. After a 30-min incubation at 37° C., the medium was removed and frozen for immunoassays. At the end of incubation, islets were lysed in lyses buffer and the total insulin content determined by immunoassay. […]

[5] = test system: αTC1 cells; assay: MTT cell viability assay in αTC1 cells; assay type: cell-based, mouse
Description: 1A: Glutamate induces a dose-dependent beta-cell death. […] Data are presented as % Relative Growth Rate (RGR) versus controls (100%) and represent the mean±SE of at least 7 independent experiments (n=6). * p<0.01 vs ctrl; ° p<0.01 vs Glu 5 mM in αTC1.
αTC1 were cultured in DMEM 25 mM glucose supplemented with 10% heat inactivated fetal bovine serum, 2 mM glutamine, and 100 IU/ml streptomycin/penicillin, as previously described (Galbiati et al, 2002). Experiments were performed between the 33 and 43 passage of cell culture. Cells were cultured under standard humidified conditions of 5% CO2 at 37° C.
as §1

[6] = test system: βTC3 cells; assay: TUNEL apoptosis assay in βTC3 cells; assay type: cell-based; settings: 0.5 mM glutamate for 5 days
Description: 1B: Glutamate overstimulation causes increased β-cell apoptosis. 24 hours after plating, βTC3 cells were incubated for five days with 0.5 mM glutamate, and cell apoptosis was assessed by TUNEL assay. The cell nuclei were labelled with PrI. Histograms on the right represent TUNEL positive cells per field, and are the mean±SE of two independent experiments performed in duplicate.
6C TUNEL assay: 24 hours after plating, βTC3 cells were incubated for five days with 0.1 mM DHK, and cell apoptosis was assessed by TUNEL assay. Cell nuclei were labelled with PrI. Data are presented as TUNEL positive cells per field (histograms on the right), and are the mean±SE of two independent experiments performed in duplicate. * P<0.05
as §2
Apoptosis of β-TC3 cells was estimated using the terminal deoxynucleotidyltransferase-mediated dUTP-biotin nick end-labelling assay (TUNEL). […] Tunel-positive cells were counted by two independent observers using a 40× objective from at least 40 randomly selected fields per coverslip. […]

[7] = acute exposure (15 min, 0.5 μM glutamate) or exposure for 2 days

Compound: N#Cc1cc2c(cc1[N+](=O)[O-])=NC(=O)C(=O)N=2 [CNQX, 6-Cyano-7-nitroquinoxaline-2,3-dione]
- increase in RGR relative to 5 mM glutamate ([1]; 0.025 mM CNQX with 5 mM glutamate, five days): 30%
- prevention of vulnerability of β-cells to glutamate ([1]; co-administration with 5 mM glutamate, five days, 0.025 mM CNQX or 0.1 mM APV): partially prevented

Compound: CO/N=C(\C(=O)N[C@@H]1C(=O)N2C(C(=O)O)=C(CSc3nc(=O)c(=O)[nH]n3C)CS[C@H]12)c1csc(N)n1 [ceftriaxone]
- GLT1/EAAT2 transporter expression [2]: increased transporter's expression
- protection from glutamate toxicity ([1]; five days with ceftriaxone, 5 mM glutamate): dose-dependent protection

Compound: N[C@@H](CCC(=O)O)C(=O)O [glutamate]
- RGR decrease (cell viability) [3]: 18%
- effect on insulin secretion [4]: No effect
- glutamate toxicity (cell viability) ([5]; 0.05 to 5 mM glutamate, five days): detectable only at the highest glutamate concentration (5 mM)
- effect on cell survival [5, 7]: did not find any effect
- number of TUNEL positive cells [6]: significant increase
- reduction in RGR (cell viability) ([1]; 0.05 mM glutamate, five days): 11.53 ± 0.52%
- reduction in RGR (cell viability) ([1]; 5 mM glutamate, five days): 51.46 ± 2.61%
- effect on cell survival [1, 7]: did not find any effect
